Laboratory results from patent publication US5744485A, “Carbamates and ureas as modifiers of multi-drug resistance” (Vertex Pharmaceuticals Incorporated, priority 1995, dated 1998).

Columns and labels:
[1] = system: L1210 mouse leukemia cells transformed with the pHaMDR1/A retrovirus carrying a MDR1 cDNA (L1210VMDRC.06); experiment: MDR sensitization assay: reversal of MDR to doxorubicin in L1210VMDRC.06 cells (MTT or XTT viability, 3 days) (Table 1); conditions: for MDR Ratio 1.0 μM Cpd. / MDR Ratio (2.5 μM): mouse, l1210vmdrc.06 cells, 72 h
Experimental: To assay the ability of the compounds according to this invention to increase the antiproliferative activity of a drug, cell lines which are known to be resistant to a particular drug may be used. These cell lines include, but are not limited to, the L1210, P388D, CHO and MCF7 cell lines. Alternatively, resistant cell lines may be developed. The cell line is exposed to the drug to which it is resistant, or to the test compound; cell viability is then measured and compared to the viability of cells which are exposed to the drug in the presence of the test compound.
We have carried out assays using L1210 mouse leukemia cells transformed with the pHaMDR1/A retrovirus carrying a MDR1 cDNA, as described by Pastan et al., Proc. Natl. Acad. Sci., Vol. 85, 4486-4490 (1988). The resistant line, labelled L1210VMDRC.06, was obtained from Dr. M. M. Gottesman of the National Cancer Institute.
Multi-drug resistance assays were conducted by plating cells (2×10^3, 1×10^4, or 5×10^4 cells/well) in 96 well microtiter plates and exposing them to a concentration range of doxorubicin (50 nM-10 μM) in the presence or absence of multi-drug resistance modifier compounds ("MDR inhibitors") of this invention (1, 2.5 or 10 μM) as described in Ford et al., Cancer Res., Vol. 50, 1748-1756. (1990). After culture for 3 days, the viability of cells was quantitated using MTT (Mossman) or XTT dyes to assess mitochondrial function. All determinations were made in replicates of 4 or 8. Also see, Mossman T., J. Immunol. Methods, Vol. 65, 55-63 (1983).
Results were determined by comparison of the IC50 for doxorubicin alone to the IC50 for doxorubicin+MDR inhibitor. An MDR ratio was calculated (IC50 Dox/IC50 Dox+Inhibitor) and the integer value used for comparison of compound potencies.

HL60/ADR cells = experiment: Inhibition of MRP-mediated MDR: reversal of MDR to doxorubicin in HL60/ADR cells (XTT viability, 3 days) (Table 2); format: cell-based; conditions: Homo sapiens, 72 h, read-out: IC50 Dox alone
Experimental: We plated HL60/ADR cells in 96 well microtiter plates (4×10^4 cells/well). The cells were then exposed to various concentrations of doxorubicin (50 nM to 10 μM) in the presence or absence of various compounds of this invention at various concentrations (0.5-10 μM). After culturing the cells for 3 days, their viability was quantitated using the XTT dye method to assess mitochondrial function. Results were expressed as a ratio of the IC50 for doxorubicin alone to the IC50 for doxorubicin plus MDR inhibitor. IC50 values are expressed in nM. In all assays the intrinsic antiproliferative or cytotoxicity activity of the MDR inhibitors was also determined for HL60/ADR cells.

Compound	MDR Ratio 1.0 μM Cpd. [1]	MDR Ratio (2.5 μM) [1]	other results
COc1cc(N(C)C(=O)N2CCCC[C@H]2C(=O)OC(CCCc2cccnc2)CCCc2cccnc2)cc(OC)c1OC [Compound 5, (S)-1-((3,4,5-Trimethoxyphenyl)-methyl-carbamoyl)-piperidine-2-carboxylic acid 4-pyridin-3-yl-1-(3-pyridin-3-yl-propyl)-butyl ester]	2.8	7.8	–
CN(C(=O)N1CCCC[C@H]1C(=O)OC(CCCc1cccnc1)CCCc1cccnc1)c1cccc(C(F)(F)F)c1 [Compound 6, (S)-1-((3-Trifluoromethylphenyl)-methyl-carbamoyl)-piperidine-2-carboxylic acid 4-pyridin-3-yl-1-(3-pyridin-3-yl-propyl)-butyl ester]	–	14.6	–
CN(C(=O)N1CCCC[C@H]1C(=O)OC(CCCc1cccnc1)CCCc1cccnc1)c1ccc(C(C)(C)C)cc1 [Compound 7, (S)-1-((4-Tert-butylphenyl)-methyl-carbamoyl)-piperidine-2-carboxylic acid 4-pyridin-3-yl-1-(3-pyridin-3-yl-propyl)-butyl ester]	4.0	15.4	–
CC(C)c1ccc(N(C)C(=O)N2CCCC[C@H]2C(=O)OC(CCCc2cccnc2)CCCc2cccnc2)cc1 [Compound 8, (S)-1-((4-Isopropylphenyl)-methyl-carbamoyl)-piperidine-2-carboxylic acid 4-pyridin-3-yl-1-(3-pyridin-3-yl-propyl)-butyl ester]	1.9	3.6	–
O=C(OC(CCCc1cccnc1)CCCc1cccnc1)[C@@H]1CCCCN1C(=O)N1CCCCC1 [Compound 9, (S)-1-(Piperidine-1-carbonyl)-piperidine-2-carboxylic acid 4-pyridin-3-yl-1-(3-pyridin-3-yl-propyl)-butyl ester]	1.3	6.9	–
COc1cc(OC(=O)N2CCCC[C@H]2C(=O)OC(CCCc2cccnc2)CCCc2cccnc2)cc(OC)c1OC [Compound 11, (S)-Piperidine-1,2-dicarboxylic acid 1-(3,4,5-trimethoxyphenyl) ester 2-(4-pyridin-3-yl-1-(3-pyridin-3-yl-propyl)-butyl) ester]	1.2	2.3	–
COc1cc(N(C)C(=O)N2CCCC[C@H]2C(=O)OC(CCc2ccccc2)CCc2ccccc2)cc(OC)c1OC [Compound 13, (S)-1-((3,4,5-Trimethoxyphenyl)-methyl-carbamoyl)-piperidine-2-carboxylic acid 1-(2-phenyl-ethyl)-3-phenyl-propyl ester]	3.0	11.5	–
CN(C(=O)N1CCCCC1C(=O)OC(CCc1ccccc1)CCc1ccccc1)c1ccc(S(=O)(=O)O)cc1 (stereo not drawn) [Compound 14, 4-(Methyl-(2-(1-phenethyl-3-phenyl-propoxycarbonyl)-piperidine-1-carbonyl)-amino)-benzenesulfonic acid]	1.9	3.6	–
CN(C(=O)N1CCCC[C@H]1C(=O)OC(COCc1ccccc1)COCc1ccccc1)c1ccc(N2CCOCC2)cc1 [Compound 16, (S)-1-(Methyl-(4-morpholin-1-yl-phenyl)-carbamoyl)-piperidine-2-carboxylic acid 2-benzyloxy-1-(benzyloxy-methyl)-ethyl ester]	–	10.7	–
CN(C(=O)N1CCCC[C@H]1C(=O)OC(COCc1ccccc1)COCc1ccccc1)c1ccc(N2CCCCC2)cc1 [Compound 17, (S)-1-(Methyl-(4-piperidin-1-yl-phenyl)-carbamoyl)-piperidine-2-carboxylic acid 2-benzyloxy-1-(benzyloxy-methyl)-ethyl ester]	–	10.7	–
O=C(OC(COCc1ccccc1)COCc1ccccc1)[C@@H]1CCCCN1C(=O)Oc1cccc2ncccc12 [Compound 18, (S)-Piperidine-1,2-dicarboxylic acid 2-(2-benzyloxy-1-(benzyloxymethyl)-ethyl)ester 1-quinolin-5-yl ester]	–	13.6	–
COc1cccc2c1C(=O)c1c(O)c3c(c(O)c1C2=O)C[C@@](O)(C(=O)CO)C[C@@H]3O[C@H]1C[C@H](N)[C@H](O)[C@H](C)O1 [Dox, doxorubicin, reference compound]	–	–	IC50 (HL60/ADR cells): 5 µM
(S)-1-((3,4,5-Trimethoxyphenyl)-methyl-carbamoyl)-piperidine-2-carboxylic acid 4-pyridin-1-yl-1-(3-pyridin-1-yl-propyl)-butyl ester [Compound 10]	–	–	IC50 Dox + 1 μM Cpd. ([1]; IC50 of doxorubicin in presence of 1 μM compound, L1210VMDRC.06 cells, 3 days): 400; IC50 Dox + 2.5 μM Cpd. ([1]; IC50 of doxorubicin in presence of 2.5 μM compound, L1210VMDRC.06 cells, 3 days): 85
